Measurements: PMC4887910, “A synthetic kisspeptin analog that triggers ovulation and advances puberty” (Scientific Reports, 2016)
“Also recorded” adds a separate entry of the source. Like-named read-outs stand apart in the source and are kept apart here. Values belong to the compound of their own block, whether it stands above or below them. Starred links: 1 amine or outer side, 2 acyl side, 3 side chain; linkers in the order of their positions; H or OH if unused. Non-standard residues stand in square brackets, D forms with d. Residues, ends and D or L forms follow the SMILES beside them. No end group written: not given here. *: point of attachment. Glyψ(1,4-Tz)Leu = CC(C)C[C@@H](C(=O)[*:2])n1cc(CN[*:1])nn1; γGlu = O=C(O)[C@H](CCC(=O)[*:2])N[*:1]; Arg(Me) = CNC(=N)NCCC[C@H](N)C(=O)O; Palmitoyl = CCCCCCCCCCCCCCCC(=O)*

Assays:
hKiSS1R = target: T1, hKiSS1R (Homo sapiens, UniProt Q969F8); assay: intracellular Ca2+ mobilization assay (Fluo4 NW) in KiSS1R-transfected HEK293A cells; assay type: cell-based; details: for EC50: SEM
T1 construct: expressed in transfected cells; host or cells: HEK293A
Source text: Figure 1 Chemical structures and half maximal effective concentration (mean ± SEM, N = 3) of kisspeptin 10 and analogs C2–C7 as measured in a calcium mobilization assay in KiSS1R-transfected HEK293 cell line. Ac: acetyl; Palm-γ-Glu: N-palmitoylated-γ-glutamate, Tz: Triazole; Me: Methyl. TEXT PRINTED IN THE PICTURE: Kp10 1: EC50 (nM): 2.6 ± 2.2 | 2: EC50 (nM): 0.07 ± 0.06 | 3: EC50 (nM): 1.6 ± 0.2 | 4: EC50 (nM): 216 ± 110 | 5: EC50 (nM): 0.22 ± 0.33 | 6: EC50 (nM): 0.33 ± 0.24 | 7: EC50 (nM): 0.04 ± 0.02
Receptor activation was monitored using Fluo4 NW Ca^2+ assay kit in HEK293A cells transfected with the hKiSS1R as previously described[11] (kind gift of professor N. de Roux, INSERM U690, Hôpital Robert Debré, Paris, France). Considering the type of analysis performed, assessment of second messenger activation of a heterologous expressed receptor, the use of potentially misidentified cells has no impact on the result. Basal fluorescence was measured with a plate reader (PolarStar Optima, BMG Labtech). Immediately after the basal reading, the test compound was added at different concentrations and the intracellular Ca^2+ dynamic monitored. To generate concentration activity curves, the mean basal value was subtracted from the value obtained after stimulation. The area under the curve (AUC) was calculated and plotted against concentrations. Concentration activity data points were fitted to sigmoidal curves generated by GraphPad Prism 5 and EC50 automatically calculated.

ewes [1] = assay: LH surge / ovulation induction in ewes injected 24 h after flugestone acetate withdrawal (LH, FSH, progesterone); assay type: in vivo, ewe (Ile de France); details: 15 nmol/ewe im
Experimental: (§1) To induce an artificial luteal phase intact cyclic (October–December) or anestrus acyclic (March–June) ewes were implanted with vaginal sponge containing FA (Chronogest, Intervet), a progesterone analog, for 14 days. To compare the activity of Kp, C3, C5 and C6 injection of test drug was performed during the treatment with FA. For the experiments of synchronization and induction of ovulation 24 hours before drug injection the vaginal sponge was removed and the same day a catheter (ID 1.0, L 52 mm, Intraflon 2, Vygon, France) was inserted in the jugular vein. On the day of experiment the test compound was injected intramuscularly and blood samples (2 mL) were taken at various time intervals post-injection: every10 minutes for the first hour, every 20 minutes from 2 to 6 hours, every 60 minutes from 6 to 10 hours and every 120 minutes from 10 hours to the end of the experiment). Data are expressed as means ± SEM (N = 6–12 per group, for details on group size see figure legends).
Plasma LH concentrations in ewe were measured using previously described radioimmunoassays. […] Plasma FSH levels were measured using the reagents supplied by Tucker Endocrine Research Institute (Atlanta, Georgia, USA). […]
Progesterone was measured by an ELISA assay on 96-well plate (Immuno Nunc Maxisorp C96) coated with goat anti-mouse IgG (Uptima UP462140, Interchim) overnight at 4 °C. […]

ewes [2] = assay: LH plasma concentration in ewes during artificial luteal phase (under flugestone acetate), intramuscular injection; assay type: in vivo, ewe (Ile de France); details: 15 nmol/ewe im, breeding season, ewes under FA treatment, N = 6
Experimental: as §1
Plasma LH concentrations in ewe were measured using previously described radioimmunoassays. The assay standard was 1055-CY-LH (equivalent to 2.2 NIH-LH-S1). Intra-assay coefficient of variation averaged 9% and assay sensitivity was 0.2 ± 0.05 ng/mL. Plasma FSH levels were measured using the reagents supplied by Tucker Endocrine Research Institute (Atlanta, Georgia, USA). […]

KiSS1R KO mice = assay: circulating LH concentration in KiSS1R KO mice; assay type: in vivo, mouse
Experimental: Adult male and female KiSS1R KO mice[41] were primed by 5 ip injections of 40 ng/100 μL GnRH at 30 minute intervals and an equivalent volume of saline was injected to wild type mice. This protocol allows the pituitary gland to become more responsive to GnRH in this mouse line as previously reported. Blood samples (4 μL) were collected from the tail tip as previously described, before the first, third and fifth injection, and 30, 105 and 125 minutes after the last injection. C6 was injected immediately after the last blood sampling (0.3 nmoles/200 μL, a dose established in a preliminary experiment) and blood samples taken 20, 40, 60, 90, 120, 180, 300 minutes following injection. After 300 minutes a further injection of GnRH (40 ng/100 μL) was performed in KiSS1R KO mice, and a final blood sample was taken 30 minutes later to confirm the functionality of the HPG axis. Whole blood samples were collected in 150 μL of 0.1 M PBS-0.05% Tween20, mixed and moved to dry ice at the end of each sampling round. Experiments were conducted during the first 8 hours of the light phase to avoid any endogenous LH surges associated with the preovulatory stage of the female reproductive cycle. Data are expressed as means ± SEM (N = 4–7 per group, for details on group size see figure legends).
A sandwich ELISA, adapted from Steyn et al.[42], was used to measure LH concentration in mice. Monoclonal bovine LHβ 518 B7 (1:1,000 dilution) was used as the capture antibody (obtained from Lillian Sibley at University of California Davis), and the standard was NIDDK mouse LH reference preparation from AF Parlow (AFP5306A mouse RIA kit). The assay sensitivity was 0.2 ng/mL and the mean intra-assay coefficient of variation averaged 11%.

[3] = KiSS1R-transfected HEK293 cell line, Fluo4 NW, AUC fitted, mean ± SEM, N = 3, read-out: EC50, calcium mobilization
[4] = 40 ng GnRH 300 min after C6, sample 30 min later
[5] = 5 ip injections of 40 ng GnRH at 30 min intervals, 15 minutes post injection

T1 sequence (Q969F8 whole entry): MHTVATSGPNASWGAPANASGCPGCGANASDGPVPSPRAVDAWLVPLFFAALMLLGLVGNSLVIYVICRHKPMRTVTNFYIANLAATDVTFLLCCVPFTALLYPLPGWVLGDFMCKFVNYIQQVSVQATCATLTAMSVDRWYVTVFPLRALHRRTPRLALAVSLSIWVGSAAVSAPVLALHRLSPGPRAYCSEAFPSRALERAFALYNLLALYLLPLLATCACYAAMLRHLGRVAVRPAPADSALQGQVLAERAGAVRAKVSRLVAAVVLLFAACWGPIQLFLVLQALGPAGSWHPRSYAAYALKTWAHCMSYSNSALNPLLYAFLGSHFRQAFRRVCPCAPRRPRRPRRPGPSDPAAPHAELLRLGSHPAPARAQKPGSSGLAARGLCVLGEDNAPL

Compound: CCCCCCCCCCCCCCCC(=O)N[C@@H](CCC(=O)N[C@@H](Cc1ccc(O)cc1)C(=O)N[C@@H](CC(N)=O)C(=O)N[C@@H](Cc1c[nH]c2ccccc12)C(=O)N[C@@H](CC(N)=O)C(=O)N[C@@H](CO)C(=O)N[C@@H](Cc1ccccc1)C(=O)NCc1cn([C@@H](CC(C)C)C(=O)N[C@@H](CCCNC(=N)NC)C(=O)N[C@@H](Cc2ccc(O)cc2)C(N)=O)nn1)C(=O)O [C6] ({Palmitoyl-γGlu}-YNWNSF[Glyψ(1,4-Tz)Leu][Arg(Me)]Y-NH2)
enhancement in EC50 compared to C3 (hKiSS1R; C6 versus first generation analog C3): ~ 5 fold
EC50 (hKiSS1R): 0.33 ± 0.24 nM

Compound: YNWNSFGLRY-NH2 [Kp10]
effect on LH plasma concentration, non-breeding season (ewes [1]; 24 h after ending FA treatment, N = 6): no increase
progesterone level (ewes [1]; non-breeding season, 1 ng mL^−1 threshold = ovulation hallmark): < 1 ng/mL
EC50 (hKiSS1R; [3]): 2.6 ± 2.2 nM
effect on LH plasma concentration (ewes [2]): negligible effect; also recorded: no effect on LH basal level

Compound: gonadotropin releasing hormone (QHWSYGLRPG; ends and bridges not checked; UniProt P13562 22-31, looked up) [GnRH, hormone injected ip to prime KiSS1R KO mice and check pituitary function]
LH after further GnRH injection at end of experiment, KO females (KiSS1R KO mice; [4]): 4.8 ± 1.9 ng/mL
LH after further GnRH injection at end of experiment, KO males (KiSS1R KO mice; [4]): 3.2 ± 0.4 ng/mL
LH after GnRH priming, KO females (KiSS1R KO mice; [5]): 2.3 ± 0.8 ng/mL
LH after GnRH priming, KO males (KiSS1R KO mice; [5]): 2.7 ± 0.6 ng/mL
fold increase of circulating LH after GnRH priming (KiSS1R KO mice; KiSS1R KO mice, 15 minutes post injection): 3–6 fold

Second part, the compound after the results:

EC50 (hKiSS1R; [3]): 0.22 ± 0.33 nM
Compound: CCCCCCCCCCCCCCCC(=O)N[C@@H](CCC(=O)N[C@@H](Cc1ccc(O)cc1)C(=O)N[C@@H](CC(N)=O)C(=O)N[C@@H](Cc1c[nH]c2ccccc12)C(=O)N[C@@H](CC(N)=O)C(=O)N[C@@H](CO)C(=O)N[C@@H](Cc1ccccc1)C(=O)NCc1cn([C@@H](CC(C)C)C(=O)N[C@@H](CCCNC(=N)N)C(=O)N[C@@H](Cc2ccc(O)cc2)C(N)=O)nn1)C(=O)O [C5] ({Palmitoyl-γGlu}-YNWNSF[Glyψ(1,4-Tz)Leu]RY-NH2)

EC50 (hKiSS1R; [3]): 0.04 ± 0.02 nM
Compound: CNC(=N)NCCC[C@H](NC(=O)[C@H](CC(C)C)n1cc(CNC(=O)[C@H](Cc2ccccc2)NC(=O)[C@H](CO)NC(=O)[C@H](CC(N)=O)NC(=O)[C@H](Cc2c[nH]c3ccccc23)NC(=O)[C@H](CC(N)=O)NC(=O)[C@H](Cc2ccc(O)cc2)NC(C)=O)nn1)C(=O)N[C@@H](Cc1ccc(O)cc1)C(N)=O [C7] (Ac-YNWNSF[Glyψ(1,4-Tz)Leu][Arg(Me)]Y-NH2)
